Each structure is given as a SMILES string.

In data set [1] the test system is luciferase expression in the liver. The experiment in a line: Luciferase mRNA in vivo evaluation: luciferase expression in the liver after tail vein injection of FLuc mRNA lipid nanoparticles. Also on record: species or system mice. Conditions: liver 4 hours after administration, Lipid Ratio B: 47.5% cationic lipid/10% DSPC/40.8% cholesterol/1.7% PEG lipid; for Liver Luc @ 0.3 mg/kg (ng luc/g liver): 0.3 mg mRNA/kg; for Liver Luc @ 1.0 mg/kg (ng luc/g liver): 1.0 mg mRNA/kg. The protocol: Cationic lipid, DSPC, cholesterol and PEG-lipid were solubilized in ethanol at a molar ratio of 50:10:38.5:1.5 or 47.5:10:40.8:1.7. Lipid nanoparticles (LNP) were prepared at a total lipid to mRNA weight ratio of approximately 10:1 to 30:1. Briefly, the mRNA was diluted to 0.2 mg/mL in 10 to 50 mM citrate buffer, pH 4. Syringe pumps were used to mix the ethanolic lipid solution with the mRNA aqueous solution at a ratio of about 1:5 to 1:3 (vol/vol) with total flow rates above 15 ml/min. The ethanol was then removed and the external buffer replaced with PBS by dialysis. Finally, the lipid nanoparticles were filtered through a 0.2 μm pore sterile filter. Lipid nanoparticle particle size was approximately 55-95 nm diameter, and in some instances approximately 70-90 nm diameter as determined by quasi-elastic light scattering using a Malvern Zetasizer Nano ZS (Malvern, UK).
Studies were performed in 6-8 week old female C57BL/6 mice (Charles River) 8-10 week old CD-1 (Harlan) mice (Charles River) according to guidelines established by an institutional animal care committee (ACC) and the Canadian Council on Animal Care (CCAC). Varying doses of mRNA-lipid nanoparticle were systemically administered by tail vein injection and animals euthanized at a specific time point (e.g 4 hrs) post-administration. Liver and spleen were collected in pre-weighed tubes, weights determined, immediately snap frozen in liquid nitrogen and stored at −80° C. until processing for analysis.
For liver, approximately 50 mg was dissected for analyses in a 2 mL FastPrep tubes (MP Biomedicals, Solon Ohio). ¼″ ceramic sphere (MP Biomedicals) was added to each tube and 500 μL of Glo Lysis Buffer—GLB (Promega, Madison Wis.) equilibrated to room temperature was added to liver tissue. Liver tissues were homogenized with the FastPrep24 instrument (MP Biomedicals) at 2×6.0 m/s for 15 seconds. Homogenate was incubated at room temperature for 5 minutes prior to a 1:4 dilution in GLB and assessed using SteadyGlo Luciferase assay system (Promega). Specifically, 50 μL of diluted tissue homogenate was reacted with 50 μL of SteadyGlo substrate, shaken for 10 seconds followed by 5 minute incubation and then quantitated using a CentroXS^3 LB 960 luminometer (Berthold Technologies, Germany). The amount of protein assayed was determined by using the BCA protein assay kit (Pierce, Rockford Ill.). Relative luminescence units (RLU) were then normalized to total ug protein assayed. To convert RLU to ng luciferase a standard curve was generated with QuantiLum Recombinant Luciferase (Promega). Based in the data provided in FIG. 1, the four-hour time point was chosen for efficacy evaluation of the lipid formulations.
The FLuc mRNA (L-6107) from Trilink Biotechnologies will express a luciferase protein, originally isolated from the firefly, Photinus pyralis. FLuc is commonly used in mammalian cell culture to measure both gene expression and cell viability. It emits bioluminescence in the presence of the substrate, luciferin. This capped and polyadenylated mRNA is fully substituted with 5-methylcytidine and pseudouridine.
The cationic lipids shown in Table 2 have previously been tested with nucleic acids. For comparative purposes, these lipids were also used to formulate lipid nanoparticles containing the FLuc mRNA (L-6107) using an in line mixing method, as described in Example 1 and in PCT/US10/22614, which is hereby incorporated by reference in its entirety. […]

Data set [2] can be described thus: Determination of pKa of formulated lipids in lipid nanoparticles (TNS fluorescence assay). The format is physicochemical. Conditions: pKa of cationic lipid in LNP (cationic lipid/DSPC/cholesterol/PEG-lipid 50/10/38.5/1.5 mol %), pH of half-maximal intensity. The procedure:
As described elsewhere, the pKa of formulated cationic lipids is correlated with the effectiveness of LNPs for delivery of nucleic acids (see Jayaraman et al, Angewandte Chemie, International Edition (2012), 51(34), 8529-8533; Semple et al, Nature Biotechnology 28, 172-176 (2010)). The preferred range of pKa is ˜5 to ˜7. […] Lipid nanoparticles comprising of cationic lipid/DSPC/cholesterol/PEG-lipid (50/10/38.5/1.5 mol %) in PBS at a concentration of 0.4 mM total lipid are prepared using the in-line process as described in Example 1. TNS was prepared as a 100 μM stock solution in distilled water. Vesicles were diluted to 24 μM lipid in 2 mL of buffered solutions containing, 10 mM HEPES, 10 mM MES, 10 mM ammonium acetate, 130 mM NaCl, where the pH ranged from 2.5 to 11. An aliquot of the TNS solution was added to give a final concentration of 1 μM and following vortex mixing fluorescence intensity was measured at room temperature in a SLM Aminco Series 2 Luminescence Spectrophotometer using excitation and emission wavelengths of 321 nm and 445 nm. A sigmoidal best fit analysis was applied to the fluorescence data and the pKa was measured as the pH giving rise to half-maximal fluorescence intensity (see FIG. 2).

Usually pKa stands for the pH at which an ionisable group is half protonated. A lower pKa goes with a stronger acid or weaker base. As to `CCCCCCC(CCCC)C(=O)OCCCCCCCCCN(CCCO)CCCCCCCCCOC(=O)C(CCCC)CCCCCC` (stereo not drawn) [Compound 45], in data set [1], the “Liver Luc @ 0.3 mg/kg (ng luc/g liver)” value is 1026 ± 199 ng luc/g liver and the “Liver Luc @ 1.0 mg/kg (ng luc/g liver)” value stood at 8806 ± 2836 ng luc/g liver. Further, the pKa in data set [2] was 6.25.

As to `CCCCCCCCC(CCCCCC)COC(=O)CCCCCCCN(CCO)CCCCCCCC(=O)OCC(CCCCCC)CCCCCCCC` (stereo not drawn) [Compound 46], in data set [1], the “Liver Luc @ 0.3 mg/kg (ng luc/g liver)” value was 4 ± 2 ng luc/g liver and the “Liver Luc @ 1.0 mg/kg (ng luc/g liver)” value is given as 5 ± 3 ng luc/g liver. This molecule also showed a pKa in data set [2] of 6.06.

Source of the values: patent US11040112B2, “Lipids and lipid nanoparticle formulations for delivery of nucleic acids” (Acuitas Therapeutics, Inc., priority 2015, dated 2021).
